Where two headings read alike, the source gives them in different places.
Experiments:
[1] = system: BET BD2; details: public sources, not a head-to-head trial, cited from earlier work; for BD2: comparator BET inhibitors; for Selectivity (BD1/BD2): comparator
[2] = target: T1, BRD4 BD2 (Homo sapiens, UniProt O60885); assay: NanoBRET bromodomain assay, NanoLuc-BRD4-BD2 in HEK293 cells; type: binding; details: for Fold Selectivity BRD4 BD1/BD2: IC50 BD1/IC50 BD2, qualitative if an IC50 is at the upper limit
T1 construct: HEK293 cells were transfected using NanoLuc-BRD4-BD1 or NanoLuc-BRD4-BD2 fusion vectors
Description: (§1) Plates were then incubated at 37° C.+5% CO2 incubator for 2 hours.
(§2) Fold Selectivity Calculated (IC50 BD1/IC50 BD2).

[3] = target: T2, BRD4 BD1 (Homo sapiens, UniProt O60885); assay: NanoBRET bromodomain assay, NanoLuc-BRD4-BD1 in HEK293 cells; type: binding
T2 construct: HEK293 cells were transfected using NanoLuc-BRD4-BD1 or NanoLuc-BRD4-BD2 fusion vectors
Description: Exemplary compounds of the disclosure are active against BRD4 BD2 and selective over BRD4 BD1. BRD4 is a representative example of the BET family, as the binding sites of all BET family members are structurally similar. […] IC50s and fold selectivity's are determined as described below and are represented in Table 1.
as §1, §2

Compound	IC50 [2] [µM]	Fold Selectivity BRD4 BD1/BD2 [2]	IC50 [3] [µM]	BD2 [1] [nM]	Selectivity (BD1/BD2) ([1]; nanoBRET assay) [x]	Selectivity (BD1/BD2) ([1]; FRET)
Cc1sc2c(c1C)C(c1ccc(Cl)cc1)=N[C@@H](CC(=O)Nc1ccc(O)cc1)c1nnc(C)n1-2 [MK-8628/OTX-015]				26	1.5	
NUV-868				2		1,460x (FRET)
Cc1noc2c1-c1ccccc1C(c1ccc(Cl)cc1)=N[C@H]2CC(N)=O [Pelabresib]				17		5x (FRET)
CNc1nc(-c2nc3ccc(N4CCN(C)CC4)cc3n2Cc2ccccc2)cn2c(C)nnc12 [BI-894999]				41	0.1	
Cc1cccc(C)c1Oc1cn(C)c(=O)cc1-c1cn(C)c(=O)c2[nH]c(-c3cnn(C(F)F)c3)cc12 [Example 12, 2-(1-(difluoromethyl)-1H-pyrazol-4-yl)-4-(5-(2,6-dimethylphenoxy)-1-methyl-2-oxo-1,2-dihydropyridin-4-yl)-6-methyl-1,6-dihydro-7H-pyrrolo[2,3-c]pyridin-7-one]	0.01 to 0.05	xxx (Fold >200 and ≤1000)	> 1			
CC(C)c1cc(-c2cc3c(-c4cc(=O)n(C)cc4-c4ccccc4)cn(C)c(=O)c3[nH]2)ccc1F [Example 71]	0.05 to 0.2	xx (Fold >50 and ≤200)	> 1			
Cn1cc(-c2cc(=O)n(C3COC3)cc2-c2ccccc2)c2cc(-c3cnn(C(F)(F)F)c3)[nH]c2c1=O [Example 5, 6-methyl-4-(1-(oxetan-3-yl)-2-oxo-5-phenyl-1,2-dihydropyridin-4-yl)-2-(1-(trifluoromethyl)-1H-pyrazol-4-yl)-1,6-dihydro-7H-pyrrolo[2,3-c]pyridin-7-one]	0.01 to 0.05	xxx (Fold >200 and ≤1000)	> 1			
Cc1cc(-c2cc3c(-c4cc(=O)n(C)cc4-c4cccc(S(C)(=O)=O)c4)cn(C)c(=O)c3[nH]2)cc(C)n1 [Example 89]	0.05 to 0.2	xx (Fold >50 and ≤200)	> 1			
Cn1cc(-c2cccc(CN3CCNCC3)c2)c(-c2cn(C)c(=O)c3[nH]c(-c4ccc(F)cc4F)cc23)cc1=O [Example 73]	0.2 to 1	x (Fold >2 and ≤50)	> 1			

The next lines start with results.

IC50 [2] [µM]	Fold Selectivity BRD4 BD1/BD2 [2]	IC50 [3] [µM]	Compound	BD2 [1] [nM]	Selectivity (BD1/BD2) ([1]; nanoBRET assay) [x]	Selectivity (BD1/BD2) ([1]; FRET)
0.01 to 0.05	xxx (Fold >200 and ≤1000)	> 1	COc1cccc(-c2cc3c(-c4cc(=O)n(C5CC5)cc4Oc4c(C)cccc4C)cn(C)c(=O)c3[nH]2)c1F [Example 40, 4-(1-cyclopropyl-5-(2,6-dimethylphenoxy)-2-oxo-1,2-dihydropyridin-4-yl)-2-(2-fluoro-3-methoxyphenyl)-6-methyl-1,6-dihydro-7H-pyrrolo[2,3-c]pyridin-7-one]			
< 0.01	xx (Fold >50 and ≤200)	0.5 to 1	Cn1cc(-c2ccccc2)c(-c2cn(C)c(=O)c3[nH]c(-c4cccc(S(C)(=O)=O)c4)cc23)cc1=O [Example 83]			
0.01 to 0.05	xxx (Fold >200 and ≤1000)	> 1	Cc1cc(-c2cc3c(-c4cc(=O)n(C)cc4-c4ccccc4C)cn(C)c(=O)c3[nH]2)cc(C)n1.Cl [Example 27, 2-(2,6-dimethylpyridin-4-yl)-6-methyl-4-(1-methyl-2-oxo-5-(o-tolyl)-1,2-dihydropyridin-4-yl)-1,6-dihydro-7H-pyrrolo[2,3-c]pyridin-7-one hydrochloride]			
< 0.01	xxxx (Fold >1000)	> 1	Cn1cc(-c2cc(=O)n(C3CC3)cc2-c2ccccc2)c2cc(-c3ccc(F)cc3F)[nH]c2c1=O [Example 49, 4-(1-cyclopropyl-2-oxo-5-phenyl-1,2-dihydropyridin-4-yl)-2-(2,4-difluorophenyl)-6-methyl-1,6-dihydro-7H-pyrrolo[2,3-c]pyridin-7-one]			
< 0.01	xxxx (Fold >1000)	> 1	Cn1cc(-c2cccc(COC(F)(F)F)c2)c(-c2cn(C)c(=O)c3[nH]c(-c4cnn(C(F)(F)F)c4)cc23)cc1=O [Example 17, 6-methyl-4-(1-methyl-2-oxo-5-(3-((trifluoromethoxy)methyl)phenyl)-1,2-dihydropyridin-4-yl)-2-(1-(trifluoromethyl)-1H-pyrazol-4-yl)-1,6-dihydro-7H-pyrrolo[2,3-c]pyridin-7-one]			
< 0.01	xxxx (Fold >1000)	> 1	Cc1cc(-c2cc3c(-c4cc(=O)n(C)cc4-c4ccc(F)cc4)cn(C)c(=O)c3[nH]2)cc(C)n1.Cl [Example 30, 2-(2,6-dimethylpyridin-4-yl)-4-(5-(4-fluorophenyl)-1-methyl-2-oxo-1,2-dihydropyridin-4-yl)-6-methyl-1,6-dihydro-7H-pyrrolo[2,3-c]pyridin-7-one hydrochloride]			
< 0.01	xx (Fold >50 and ≤200)	0.05 to 0.5	Cn1cc(-c2ccccc2)c(-c2cn(C)c(=O)c3[nH]c(-c4cccc(C5COC5)c4)cc23)cc1=O [Example 84]			
< 0.01	xxxx (Fold >1000)	> 1	COCc1cccc(-c2cc3c(-c4cc(=O)n(C)cc4-c4ccccc4)cn(C)c(=O)c3[nH]2)c1 [Example 85]			

Source: patent publication US20260217701A1, “SELECTIVE BET INHIBITORS AND USES THEREOF” (Tay Therapeutics Limited, priority 2022, published 2026)
